Measurements as given in ChEMBL document CHEMBL5550144, “Lysine-homologue substitution: Impact on antimicrobial activity and proteolytic stability of cationic stapled heptapeptides” (Bioorg Med Chem, 2024).
In brackets after ≈: the same amount, converted by molar mass. Positions of bridges follow the written chain, without caps; N, C: chain ends. Non-standard residues stand in square brackets, D forms with d. Residues, ends and D or L forms follow the SMILES beside them. S5 = C=CCCC[C@](C)(N)C(=O)O; Nle = CCCC[C@H](N)C(=O)O; Orn = NCCC[C@H](N)C(=O)O; Dab = NCC[C@H](N)C(=O)O; Dap = NC[C@H](N)C(=O)O

Tests used:
Pseudomonas aeruginosa = experiment: Antimicrobial activity against Pseudomonas aeruginosa ATCC 27853 assessed as inhibition of bacterial growth measured for 24 hrs by standard broth microdilution method; assay type: functional
Escherichia coli = experiment: Antimicrobial activity against Escherichia coli ATCC 25922 assessed as inhibition of bacterial growth measured for 24 hrs by standard broth microdilution method; assay type: functional
Staphylococcus aureus = experiment: Antimicrobial activity against Staphylococcus aureus ATCC 6538p assessed as inhibition of bacterial growth measured for 24 hrs by standard broth microdilution method; assay type: functional
[1] = Hemolytic activity in human Red blood cells assessed as hemolysis rate at 24 uM incubated for 30 mins by absorbance based analysis relative to control; assay type: toxicity, cell-based, Erythrocyte; details: read-out: Activity
[2] = system: Staphylococcus epidermidis; experiment: Antimicrobial activity against Staphylococcus epidermidis ATCC 12228 assessed as inhibition of bacterial growth measured for 24 hrs by standard broth microdilution method; assay type: functional
Shigella dysenteriae = experiment: Antimicrobial activity against Shigella dysenteriae ATCC 9752 assessed as inhibition of bacterial growth measured for 24 hrs by standard broth microdilution method; assay type: functional
Salmonella typhimurium = experiment: Antimicrobial activity against Salmonella enterica subsp. enterica serovar Typhimurium ATCC 14028 assessed as inhibition of bacterial growth measured for 24 hrs by standard broth microdilution method; assay type: functional
Klebsiella pneumoniae = experiment: Antimicrobial activity against Klebsiella pneumoniae ATCC 10031 assessed as inhibition of bacterial growth measured for 24 hrs by standard broth microdilution method; assay type: functional
Trypsin [3] = molecular target: T1, Trypsin (Homo sapiens, UniProt P07477+P07478+P35030); experiment: Proteolytic stability of compound assessed as trypsin (unknown origin) mediated drug degradation by measuring half life measured at 10 to 60 mins by HPLC analysis; assay type: ADME, protein assay; details: time 10-60 min
Trypsin [4] = molecular target: T1, Trypsin; experiment: Proteolytic stability of compound assessed as trypsin (unknown origin) mediated drug hydrolysis measured at 10 to 60 mins by HPLC analysis; assay type: ADME, protein assay; details: time 10-60 min, read-out: Drug degradation
Trypsin [5] = molecular target: T1, Trypsin; experiment: Proteolytic stability of compound assessed as trypsin (unknown origin) mediated drug degradation measured at 10 to 60 mins by HPLC analysis; assay type: ADME, protein assay; details: time 10-60 min, read-out: Drug degradation
Trypsin [6] = molecular target: T1, Trypsin; experiment: Proteolytic stability of compound assessed as trypsin (unknown origin) mediated drug degradation by measuring parent compound remaining measured at 10 to 60 mins by HPLC analysis; assay type: ADME, protein assay; details: time 10-60 min

SMILES | MIC (Pseudomonas aeruginosa) | MIC (Escherichia coli) | MIC (Staphylococcus aureus) | hemolysis at 0.5 h, 24 µM [1] | MIC [2] | MIC (Shigella dysenteriae) | MIC (Salmonella typhimurium) | MIC (Klebsiella pneumoniae) | half-life (Trypsin [3]) | metabolised (Trypsin [4]) | metabolised (Trypsin [5]) | Stability (Trypsin [6])
C[C@@]1(C(=O)N[C@@H](CCCCN)C(N)=O)CCC/C=C/CCC[C@](C)(NC(=O)[C@@H](N)CCCCN)C(=O)N[C@@H](Cc2c[nH]c3ccccc23)C(=O)N[C@@H](CCCCN)C(=O)N[C@@H](CCC(=O)O)C(=O)N1 (H-K[S5]WKE[S5]K-NH2; staple (E) 2-6) | > 100 µg/mL | > 100 µg/mL | > 100 µg/mL | < 0.1% | > 100 µg/mL | > 100 µg/mL | > 100 µg/mL | > 100 µg/mL |  |  |  | 
CCCC[C@@H]1NC(=O)[C@H](CCCN)NC(=O)[C@H](Cc2c[nH]c3ccccc23)NC(=O)[C@@](C)(NC(=O)[C@@H](N)CCCN)CCC/C=C/CCC[C@@](C)(C(=O)N[C@@H](CCCN)C(N)=O)NC1=O (H-[Orn][S5]W[Orn][Nle][S5][Orn]-NH2; staple (E) 2-6) | 18.8 µg/mL (≈ 20.7 µM) | 25 µg/mL (≈ 27.5 µM) | 12.5 µg/mL (≈ 13.7 µM) | 0.4% | 6.3 µg/mL (≈ 6.93 µM) | 12.5 µg/mL (≈ 13.7 µM) | 25 µg/mL (≈ 27.5 µM) | 37.5 µg/mL (≈ 41.2 µM) | 4.3 h | 11% |  | 
CCCC[C@@H]1NC(=O)[C@H](CCCCN)NC(=O)[C@H](Cc2c[nH]c3ccccc23)NC(=O)[C@@](C)(NC(=O)[C@@H](N)CCCCN)CCC/C=C/CCC[C@@](C)(C(=O)N[C@@H](CCCCN)C(N)=O)NC1=O (H-K[S5]WK[Nle][S5]K-NH2; staple (E) 2-6) | 25 µg/mL (≈ 26.3 µM) | 25 µg/mL (≈ 26.3 µM) | 12.5 µg/mL (≈ 13.1 µM) | 0.5% | 6.3 µg/mL (≈ 6.62 µM) | 12.5 µg/mL (≈ 13.1 µM) | 50 µg/mL (≈ 52.6 µM) | 50 µg/mL (≈ 52.6 µM) | 1.33 h |  | > 40% | 
CCCC[C@@H]1NC(=O)[C@H](CN)NC(=O)[C@H](Cc2c[nH]c3ccccc23)NC(=O)[C@@](C)(NC(=O)[C@@H](N)CN)CCC/C=C/CCC[C@@](C)(C(=O)N[C@@H](CN)C(N)=O)NC1=O (H-[Dap][S5]W[Dap][Nle][S5][Dap]-NH2; staple (E) 2-6) | 50 µg/mL (≈ 60.6 µM) | 25 µg/mL (≈ 30.3 µM) | 12.5 µg/mL (≈ 15.2 µM) | 0.2% | 25 µg/mL (≈ 30.3 µM) | 25 µg/mL (≈ 30.3 µM) | 50 µg/mL (≈ 60.6 µM) | 50 µg/mL (≈ 60.6 µM) | 6.38 h |  |  | > 90%
CCCC[C@@H]1NC(=O)[C@H](CCN)NC(=O)[C@H](Cc2c[nH]c3ccccc23)NC(=O)[C@@](C)(NC(=O)[C@@H](N)CCN)CCC/C=C/CCC[C@@](C)(C(=O)N[C@@H](CCN)C(N)=O)NC1=O (H-[Dab][S5]W[Dab][Nle][S5][Dab]-NH2; staple (E) 2-6) | 50 µg/mL (≈ 57.7 µM) | 25 µg/mL (≈ 28.8 µM) | 25 µg/mL (≈ 28.8 µM) | 0.1% | 12.5 µg/mL (≈ 14.4 µM) | 25 µg/mL (≈ 28.8 µM) | 50 µg/mL (≈ 57.7 µM) | 50 µg/mL (≈ 57.7 µM) | 4.82 h | 11% |  | 
